Test results as given in patent EP0314302A2, “Herbicidal o-carbomethoxy-sulfonylureas” (E.I. DU PONT DE NEMOURS AND COMPANY, priority 1987, dated 1989).

Experiments:
[1] = test system: Sowthistle; test: Test 9 postemergence; assay type: in vivo, Sonchus spp; conditions: scale 0-100
Method: (§1) Plastic windowsill pots containing planting medium were seeded with bahiagrass, bindweed (Convolvulus spp), guinea grass (Panicum maximum), large crabgrass (Digitaria sanguinalis) and pigweed (Amaranthus spp). Individual 15-cm plastic pots contained sandbur (Cenchrus echinatus), Mikania cordata, Boston fern (Nephrolepis exalata), quackgrass (Agropyron repens), elephantgrass (Pennisetum purpureum) and sowthistle (Sonchus spp) plants.
(§2) Plants were treated postemergence with Compound I formulated in a non-phytotoxic solvent. Plants were visually rated 22 days after treatment (DAT). Injury and weed control ratings were based on the scale of 0 to 100 where 0 = no effect, 20 = minimal control and 100 = complete control.

[2] = test system: Narrowleaf panicum; test: Test 5 sugarcane injury and weed control, postemergence; assay type: in vivo, Panicum maximum; conditions: scale 0-100
Method: Sugarcane (Saccharum spp.) cuttings which had been pre-sprouted were planted in 15-cm plastic pots. Narrowleaf panicum (Panicum maximum), large crabgrass (Digitaria sanguinalis), guineagrass (P. maximum) and itchgrass (Rottboellia exaltata) were seeded in individual 15-cm plastic pots.
The pots were treated postemergence when the plants had 3 to 4 leaves with 2 to 3 tillers with Compound I formulated in a non-phytotoxic carrier made up of acetone-humectant-water-surfactant (22:1:1:0.05 v/v). The degree of crop injury and weed control was visually rated 27 days after treatment (DAT). Plant injury ratings are based on the scale of 0 to 100 where 0 = no effect, 20 = minimal injury and 100 = complete control.

[3] = test system: Large Crabgrass; test: Test 9 postemergence; assay type: in vivo, Digitaria sanguinalis; conditions: 16 g/ha, scale 0-100
Method: as §1, §2

[4] = test system: Russian thistle; test: Test 7 postemergence; assay type: in vivo, Salsola spp; conditions: scale 0-100
Method: (§3) Individual 11.4-cm plastic pots filled with planting medium were seeded with rape, wild radish (Raphanus raphanistruna). tansy mustard (Descurainia pinnata), ball mustard (Neslia paniculata), black mustard (Brassica nigra), yellow mustard, brown mustard, lentils, safflower, flax, sunflower, peanut, vetch, alfalfa, field bean, pea, violet (Viola spp), Kochia (Kochia spp), Russian thistle (Salsola spp), Matricaria spp, groundsel (Senecio spp), shepherdspurse (Capsella bursa-pastoris), nightshade (Solanum spp), sowthistle (Sonchus spp), sugar beet, wheat, "Bonanza" barley and "Morex" barley, Kentucky bluegrass (Poa pratensis), red clover (Trifolium pratense), dandelion (Taraxacum spp) and buckhorn plantain (Plantago lanceolata).
(§4) Plants were treated postemergence with the compound formulated with a non-phytotoxic carrier. Plants were visually rated 18 days after treatment (DAT). Response ratings were based on the scale of 0 to 100 where 0 = no effect, 20 = minimal injury and 100 = complete control.

[5] = test system: Narrowleaf panicum; test: Test 11 windowsill flats, postemergence; assay type: in vivo, Panicum maximum; conditions: Postemergence 32 g/ha, 0.25% X-77 surfactant, scale 0-100
Method: (§5) Budded citrus seedlings were planted in 30-liter plastic pots which were also seeded with sandbur, guineagrass, narrowleaf panicum, common ragweed, yellow nutsedge, purple nutsedge and bindweed. Compound I was applied preemergence and postemergence to the weeds. Treatments were sprayed to simulate the trunk-to-trunk herbicide application method used in some citrus groves. The compound was also applied postemergence to weeds grown in windowsill flats. The flats were filled with planting medium and seeded with morningglory (Ipomoea spp.). purple nutsedge (Cyperus rotundus), pigweed (Amaranthus spp.), bindweed (Convolvulus spp.), narrowleaf panicum (Panicum maximum), common ragweed (Ambrosia artemisiifolia), sandbur (Cenchrus echinatus), itchgrass (Rottboellia exaltata), johnsongrass (Sorghum halepense), guineagrass (Panicum maximum), smooth crabgrass (Digitaria ischaemum), broadleaf signalgrass (Brachiaria platyphylla), bermudagrass (Cynodon dactylon), goosegrass (Eleusine indica), large crabgrass (Digitaria sanguinalis) and yellow nutsedge (Cyperus esculentus).
(§6) The compound was formulated and sprayed with 0.25% X-77 surfactant in water. Plants were visually rated 21 and 29 days after treatment and compared with appropriate controls. Injury ratings were based on the scale of 0 to 100, where 0 indicates no effect, 20 indicates minimum effect and 100 indicates complete control. […]

[6] = test system: Guineagrass; test: Test 11 windowsill flats, postemergence; assay type: in vivo, Panicum maximum; conditions: Postemergence 32 g/ha, 0.25% X-77 surfactant, scale 0-100
Method: as §5, §6

[7] = test system: Bindweed; test: Test 11 citrus pots, preemergence to the weeds; assay type: in vivo, Convolvulus spp.; conditions: Preemergence 32 g/ha; 0.25% X-77 surfactant; scale 0-100
Method: as §5, §6

[8] = test system: Guinea Grass; test: Test 9 postemergence; assay type: in vivo, Panicum maximum; conditions: 16 g/ha, scale 0-100
Method: as §1, §2

[9] = test system: Groundsel; test: Test 7 postemergence; assay type: in vivo, Senecio spp; conditions: scale 0-100
Method: as §3, §4

[10] = test system: Kochia scoparia; test: Test 1 greenhouse, postemergence; assay type: in vivo; conditions: 21 days, scale 0-100
Method: Seeds of Bromus tectorum, Kochia scoparia, Salsoa kali, Avena fatua, Convolvulus arvensis, Secale cereale, Setaria viridis and Triticum aestivum were placed in 26-cm plastic pans containing a pasteurized sandy loam soil (pH 6.5, 1% organic matter). Plantings were maintained in the greenhouse for 18-28 days at which time the postemergence treatments were applied using a nonphytotoxic solvent as the carrier for the herbicide. The preemergence segment of the test was seeded immediately before herbicide application using Bromus tectorum, Kochia scoparia, Polygonum convolvulus, Salsoa kali, Avena fatua, Convolvulus arvensis, Secale cereale, Setaria viridis, Aegilops cylindrica, Amaranthus retroflexus, Chenopodium album, Hordeum vulgare, Triticum aestivum, Sorghum bicolor, and Zea mays. All treatments were maintained in the greenhouse for an additional 21 days at which time visual assessment of weed control was determined using a scale of 0 to 100 for each species where 0 represented no control and 100 represented complete control.

[11] = test system: Sour Lemon; test: Test 12 over-the-top application, postemergence; assay type: in vivo; conditions: 26 days after treatment, scale 0-100
From the text: The object of this test was to evaluate the safety of sour lemon to the over-the-top application of Compound I and control of lantana (Lantana camara) and trumpetcreeper (Campsis radicans). Plants were sprayed postemergence with Compound I formulated in a non-phytotoxic solvent. Treated plants were visually rated 26 days after treatment and compared with appropriate controls. Injury ratings were based on the scale of 0 to 100, where 0 indicates no effect, 20 indicates minimal effect and 100 indicates complete control.

[12] = test system: Citrus; test: Test 11 citrus pots, preemergence to the weeds; assay type: in vivo; conditions: Preemergence 32 g/ha; 0.25% X-77 surfactant; scale 0-100
Method: as §5, §6

[13] = test system: Black mustard; test: Test 7 postemergence; assay type: in vivo, Brassica nigra; conditions: scale 0-100
Method: as §3, §4

[14] = test system: Yellow nutsedge; test: Test 11 windowsill flats, postemergence; assay type: in vivo, Cyperus esculentus; conditions: Postemergence 32 g/ha, 0.25% X-77 surfactant, scale 0-100
Method: as §5, §6

[15] = test system: Wild mustard; test: Test 7 postemergence; assay type: in vivo; conditions: scale 0-100

COC(=O)c1cccnc1S(=O)(=O)NC(=O)Nc1nc(OC)cc(OC)n1 [Compound I, 2-[[(4,6-dimethoxypyrimidin-2-yl)aminocarbonyl]aminosulfonyl]-3-pyridinecarboxylic acid, methyl ester]
Plant Injury Rating 22 DAT ([1]; 8 g/ha): 60
Plant Injury Rating 22 DAT ([1]; 16 g/ha): 70
Plant Injury Rating 22 DAT ([1]; 32 g/ha): 100
Plant Injury Rating 27 DAT ([2]; 8 g/ha): 70
Plant Injury Rating 27 DAT ([2]; 16 g/ha): 100
Plant Injury Rating 27 DAT ([2]; 32 g/ha): 100
Plant Injury Rating 27 DAT ([2]; 64 g/ha): 100
Plant Injury Rating 22 DAT [3]: 60
Plant Injury Rating 18 DAT ([4]; 16 g/ha): 100
Plant Injury Rating 18 DAT ([4]; 32 g/ha): 100
Injury ratings [5]: 90
Injury ratings [6]: 100
Injury ratings [7]: 90
Plant Injury Rating 22 DAT [8]: 60
Plant Injury Rating 18 DAT ([9]; 16 g/ha): 100
Plant Injury Rating 18 DAT ([9]; 32 g/ha): 100
visual assessment of weed control ([10]; 4 g/ha): 100
visual assessment of weed control ([10]; 8 g/ha): 100
visual assessment of weed control ([10]; 16 g/ha): 100
visual assessment of weed control ([10]; 32 g/ha): 100
visual assessment of weed control ([10]; 64 g/ha): 100
visual assessment of weed control ([10]; 125 g/ha): 100
Injury ratings ([11]; 8 g/ha): 20
Injury ratings ([11]; 16 g/ha): 50
Injury ratings ([11]; 32 g/ha): 70
Injury ratings [12]: 0
Plant Injury Rating 18 DAT ([13]; 16 g/ha): 100
Plant Injury Rating 18 DAT ([13]; 32 g/ha): 100
Injury ratings [14]: 80
Plant Injury Rating 18 DAT ([15]; 16 g/ha): 100
Plant Injury Rating 18 DAT ([15]; 32 g/ha): 100
